Some test systems named below: UO-31; COLO 205; OVCAR-3; OVCAR-5; 786-0; HT-29; RXF 393; MOLT-4; NCI-H460; EKVX; SF-268; A549; UACC-62; HCT-15; CAKI-1; SNB-19; SNB-75; LOX IMVI.
Holding throughout (test): inhibition of tumour cell growth, NCI panel, 48 h

SMILES strings stand for the structures.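 1) Cells in 96-well plates. 2) Compound, 48 h, 5 concentrations. 3) Linear interpolation between surrounding doses. 4) Unreached endpoint = highest concentration. Abbreviation: GI50, concentration required for 50% inhibition of growth.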 The source made the active and inactive calls. Rule as the data show it: active = GI50 up to about 1.1 µM and inactive = higher.

Take `COC(=O)/C(=N\NC(=O)c1ccccc1O)C(C#N)c1ccc(Cl)cc1` (centres undefined): the GI50 in the assay with UO-31 was 16.7 µM (inactive); in the assay on COLO 205, > 100 µM (inactive); with OVCAR-3, 29.9 µM (inactive); in the assay on OVCAR-5 it was 34.9 µM (inactive); in the assay on 786-0, 18 µM (inactive); in the assay on HT-29, 74.1 µM (inactive). Moreover, the GI50 in the assay with RXF 393 was 2.04 µM (inactive); with MOLT-4, 31.4 µM (inactive); with NCI-H460, 39 µM (inactive); with EKVX, 15.6 µM (inactive); in the assay with SF-268, 13.2 µM (inactive); in the assay with A549 it was 3.85 µM (inactive). For the same molecule, the results for the GI50 in the assay with UACC-62 and with HCT-15 were 3.69 µM (inactive) and 33 µM, respectively.

For `Nc1c(C(=O)Nc2ccccc2O)[n+]([O-])c2ccccc2[n+]1[O-]`, the GI50 with CAKI-1 was > 100 µM (inactive); in the assay on UO-31, 37.5 µM (inactive); in the assay with COLO 205, 42.9 µM (inactive); in the assay with OVCAR-3, 29.9 µM (inactive); with OVCAR-5, > 100 µM (inactive); with 786-0 it was > 100 µM (inactive). Also, the GI50 was > 100 µM (inactive) in the assay with HT-29; 45.8 µM (inactive) in the assay on MOLT-4; 27 µM (inactive) in the assay on NCI-H460; > 100 µM (inactive) in the assay on EKVX; > 100 µM (inactive) in the assay on SNB-19; 36.1 µM (inactive) in the assay on A549. Also, the GI50 with SNB-75 is 47.9 µM (inactive); with HCT-15, 30.5 µM.

For `CCc1c(C#N)c(=O)[nH]c(=O)n1CCN1CCN(C(=O)NCCCCCCNC(=O)N2CCN(CCn3c(CC)c(C#N)c(=O)[nH]c3=O)CC2)CC1`, the GI50 with CAKI-1, with COLO 205, with OVCAR-3, in the assay with 786-0, in the assay with HT-29 and in the assay with MOLT-4 was > 100 µM (inactive) in each case. The GI50 in the assay on NCI-H460 is > 100 µM (inactive); in the assay with EKVX, > 100 µM (inactive); in the assay with SNB-19, > 100 µM (inactive); with A549, > 100 µM (inactive); with SNB-75 it was > 10 µM (inactive); with UACC-62, > 100 µM (inactive). The GI50 in the assay on HCT-15 is greater than 100 µM; in the assay with LOX IMVI, > 100 µM (inactive).

Take `COc1ccccc1-c1cc(=O)c2cc(C)c(C)c(C(=O)O)c2o1`: the GI50 with UO-31, in the assay with COLO 205, in the assay with OVCAR-3, with OVCAR-5, in the assay with 786-0 and in the assay with HT-29 was > 100 µM (inactive) each time. Besides, the GI50 in the assay with MOLT-4, with NCI-H460, in the assay with EKVX, in the assay on SNB-19, in the assay with SF-268 and in the assay on A549 was > 100 µM (inactive) each time. Moreover, the GI50 was 40.2 µM (inactive) in the assay with SNB-75, > 100 µM (inactive) with UACC-62, greater than 100 µM with HCT-15 and > 100 µM (inactive) in the assay on LOX IMVI.

With `O=C1N(c2ccc(Cl)cc2)C(=O)C2(SC=NN2Cc2ccccc2)N1c1ccc(Cl)cc1` (centres undefined), the GI50 in the assay on UO-31 is > 100 µM (inactive); in the assay with COLO 205, > 10 µM (inactive); with OVCAR-3, 51.1 µM (inactive); in the assay with 786-0 it was > 100 µM (inactive); in the assay with HT-29 it was > 100 µM (inactive); in the assay with RXF 393 it was 37.9 µM (inactive). The GI50 in the assay with MOLT-4 was 7.87 µM (inactive); with NCI-H460, > 100 µM (inactive); with EKVX it was > 100 µM (inactive); in the assay on SNB-19, > 100 µM (inactive); in the assay with SF-268, > 100 µM (inactive); in the assay on A549 it was 96.4 µM (inactive). Besides, the values for the GI50 in the assay with SNB-75, with UACC-62 and in the assay with LOX IMVI were 64.7 µM (inactive), > 100 µM (inactive) and > 100 µM (inactive), respectively.

In the case of `C/C(=N\NC(=S)NC(CCC(=O)O)C(=O)O)c1ccccn1` (centres undefined), the GI50 in the assay on UO-31, in the assay with COLO 205, in the assay on OVCAR-3, in the assay on OVCAR-5, in the assay with 786-0 and in the assay with HT-29 was > 100 µM (inactive) throughout. The GI50 with RXF 393, with MOLT-4, with NCI-H460, in the assay with EKVX, in the assay on SNB-19 and with SF-268 was > 100 µM (inactive) each time. Also, the GI50 was > 100 µM (inactive) in the assay on A549; > 100 µM (inactive) with SNB-75; > 100 µM (inactive) in the assay with UACC-62; greater than 100 µM with HCT-15; > 100 µM (inactive) with LOX IMVI.

Take `O=C(CSc1nnc(-c2ccc(/N=C\c3ccc(Cl)cc3)cc2)o1)Nc1ccc([N+](=O)[O-])cc1`: the GI50 is 18.4 µM (inactive) in the assay on UO-31; 35.2 µM (inactive) with COLO 205; 19.8 µM (inactive) in the assay with 786-0; 19.5 µM (inactive) in the assay with HT-29; 19.6 µM (inactive) in the assay with RXF 393; 15.7 µM (inactive) in the assay on MOLT-4. Also, the GI50 in the assay with NCI-H460 was 36.4 µM (inactive); in the assay with EKVX, > 100 µM (inactive); with SNB-19, 16.6 µM (inactive); in the assay on SF-268 it was 24.3 µM (inactive); in the assay on A549 it was 39.9 µM (inactive); in the assay on SNB-75, 25.4 µM (inactive). In addition, the results for the GI50 in the assay with UACC-62, with HCT-15 and in the assay on LOX IMVI were 18.9 µM (inactive), 18.4 µM and 10.6 µM (inactive), respectively.

For `COc1cc(/C=C2\NC(=O)C3Cc4c(OC)c(C)c(OC)c(OC)c4C2N3C)c(OC)c(C)c1OC` (centres undefined), the GI50 with CAKI-1, in the assay with UO-31, with COLO 205, in the assay on OVCAR-3, in the assay with OVCAR-5 and with 786-0 was > 100 µM (inactive) throughout. In addition, the GI50 in the assay with HT-29 was > 100 µM (inactive); in the assay with RXF 393 it was 85.3 µM (inactive); with MOLT-4, 44.2 µM (inactive); in the assay with EKVX it was > 100 µM (inactive); in the assay on SNB-19 it was > 100 µM (inactive); in the assay with SF-268, > 100 µM (inactive). Besides, the GI50 in the assay with A549, with SNB-75, in the assay on UACC-62 and in the assay with LOX IMVI was > 100 µM (inactive) in each case.

`COc1cccc(N2C(=O)/C(=C/c3ccc(N(CCC#N)CCC#N)cc3)N=C2c2cc([N+](=O)[O-])ccc2Cl)c1`: the GI50 is > 100 µM (inactive) with CAKI-1; 82 µM (inactive) with UO-31; 14.7 µM (inactive) in the assay on COLO 205; 35.6 µM (inactive) in the assay with OVCAR-3; 18.5 µM (inactive) in the assay with OVCAR-5; 30.5 µM (inactive) in the assay with 786-0. Also, the GI50 is 47 µM (inactive) in the assay with HT-29; 22.3 µM (inactive) in the assay on MOLT-4; 43.5 µM (inactive) in the assay with NCI-H460; > 100 µM (inactive) with SNB-19; > 100 µM (inactive) with SF-268; 95.5 µM (inactive) in the assay with SNB-75. In addition, the GI50 with UACC-62 is 39.1 µM (inactive); in the assay with HCT-15 it was 50.4 µM.

`COC1=CC(=O)C(Br)=CC1=O`: the GI50 is 18.4 µM (inactive) in the assay with CAKI-1; 17.5 µM (inactive) in the assay on UO-31; 16.7 µM (inactive) in the assay with COLO 205; > 10 µM (inactive) in the assay on OVCAR-5; 18.6 µM (inactive) with 786-0; 19.2 µM (inactive) in the assay with HT-29. Further, the GI50 in the assay with RXF 393 was 18.2 µM (inactive); in the assay on MOLT-4, 3.3 µM (inactive); in the assay with NCI-H460 it was > 100 µM (inactive); in the assay with EKVX it was 25.1 µM (inactive); in the assay on SNB-19, 17.8 µM (inactive); in the assay on SF-268 it was 18.6 µM (inactive). The GI50 with A549 is > 100 µM (inactive); in the assay on SNB-75 it was 15.2 µM (inactive); in the assay on UACC-62, 17.6 µM (inactive); with HCT-15, 21.6 µM; with LOX IMVI, 18.2 µM (inactive).

Take `O=C(c1nc2ccc(Cl)cc2nc1O)C(O)c1ccc2c(c1)OCO2` (centres undefined): the GI50 in the assay with UO-31, in the assay on COLO 205, in the assay with OVCAR-5, in the assay with 786-0, with HT-29 and in the assay with RXF 393 was > 100 µM (inactive) in each case. The GI50 is 28.4 µM (inactive) in the assay with MOLT-4; > 100 µM (inactive) in the assay with NCI-H460; > 100 µM (inactive) in the assay with EKVX; 91 µM (inactive) in the assay on SF-268; > 100 µM (inactive) with A549; > 100 µM (inactive) in the assay on SNB-75. Moreover, the GI50 was 84.5 µM (inactive) in the assay with UACC-62 and 98.9 µM (inactive) in the assay with LOX IMVI.

Consider `CSc1nc2c(nc(N)n2C2OC(CO)C(O)C(O)C2O)c(=O)[nH]1` (centres undefined), for which the GI50 in the assay on CAKI-1, in the assay on UO-31, in the assay on COLO 205, with OVCAR-3, in the assay with 786-0 and in the assay with HT-29 was > 100 µM (inactive) in each case. Also, the GI50 in the assay with RXF 393, with MOLT-4, with NCI-H460, with EKVX, in the assay with SNB-19 and in the assay with SF-268 was > 100 µM (inactive) throughout. The GI50 in the assay on A549, in the assay with SNB-75, with UACC-62 and in the assay with LOX IMVI was > 100 µM (inactive) throughout.

Take `CC(C)C1=CC23CCC4C(C)(C(=O)O)CCCC4(C)C2CC1C1C(=O)N(c2ccccc2)C(=O)C13` (centres undefined): the GI50 is > 100 µM (inactive) with CAKI-1; 43.7 µM (inactive) with UO-31; 24.3 µM (inactive) in the assay on COLO 205; 33.7 µM (inactive) with OVCAR-3; > 100 µM (inactive) with OVCAR-5; 55.2 µM (inactive) in the assay with 786-0. Also, the GI50 in the assay on HT-29 is 38.6 µM (inactive); with RXF 393, 27.4 µM (inactive); with MOLT-4, > 100 µM (inactive); with NCI-H460 it was 38.9 µM (inactive); with SNB-19, 46.9 µM (inactive); with SF-268 it was 41.1 µM (inactive). Moreover, the GI50 in the assay on A549 is 31.6 µM (inactive); in the assay on SNB-75 it was 53.2 µM (inactive); in the assay with UACC-62, 38.6 µM (inactive); in the assay on HCT-15, 30.9 µM; in the assay with LOX IMVI it was 54.1 µM (inactive).

These data come from ChEMBL document CHEMBL1201862, “PubChem BioAssay data set” (2004).
